Measured values published in patent US10947234B2, “PRMT5 inhibitors” (Merck Sharp & Dohme Corp., priority 2017, dated 2021).
Where two headings read alike, the source gives them in different places.

What was measured:
PRMT5 = PRMT5 (Homo sapiens (Human), UniProt O14744); assay: PRMT5 Cell Target Engagement (TE) Assay; format: cell-based; settings: MCF-7 cells, 3 days treatment, nuclear SDMA by high content imaging; top compound concentration 10000 nM
Description: PRMT5 Cell Target Engagement (TE) Assay
The PRMT5 TE assay is a biomarker assay for identifying compounds that inhibit symmetric dimethylation of arginine (SDMA) of PRMT5 substrates. This assay detects symmetrically dimethylated nuclear proteins using high content imaging technology. Detection of the expression of symmetrically dimethylated nucleo proteins is through a mixture of primary rabbit monoclonal antibodies to SDMA (CST 13222), which in turn recognized by an Alexafluor 488 dye-conjugated anti-rabbit IgG secondary antibody. The IN Cell Analyzer 2200 measures nuclear Alexafluor 488 fluorescent dye intensity that is directly related to the level of expression of symmetrically dimethylated nuclear proteins at the single cell level. Nuclear AF488 dye intensities are compared to the mean value for DMSO treated cells […] to report percent of inhibition for each compound-treated well.
Each well of a BD falcon collagen coated black/clear bottom 384-well plate was seeded with 4000 MCF-7 cells and allowed to attach for 5 hours. Media from cell plate was removed at 0.5 mm above the bottom of the plate and replaced with 30 μL of fresh media containing 1.2× compounds in 0.1% DMSO. Cells were treated for 3 days in 37° C. CO2 incubator. On day 3, cells were fixed with Cytofix, permeablized with 0.4% Triton-X-100/Cytofix, and washed with D-PBS without Ca/Mg. Cells were blocked with Licor Odessey blocking reagent for one hour at room temperature, followed by incubation with anti-SDMA (1:1000) antibody at 4° C. overnight. 1° antibody was removed, followed by three washings with DPBS without Ca/Mg and 0.05% Tween20. Hoechst (5 μg/ml), Cell Mask deep stain (1:2000) and Alexa488-conjugated goat anti-rabbit IgG (2 μg/mL) was added for 1 hour at room temperature. A final washing step (three washes) was performed before sealing plate for imaging on In Cell Analyzer 2200. Images from analyzer were uploaded to Columbus (at WP) for image analysis. IC50 values were determined by 4 parameters robust fit of percent fluorescence units vs. (Log10) compound concentrations.

[1] = target: Full-length (FL)-PRMT5-MEP50 enzyme complex (Homo sapiens (Human), UniProt O14744); assay: PRMT5-MEP50 Enzyme Methylation Assay; format: biochemical; settings: biotinylated H4R3(Me1) peptide, 15 μM SAM, top compound concentration 100000 nM
Sequence of Full-length (FL)-PRMT5-MEP50 enzyme complex (O14744 whole entry): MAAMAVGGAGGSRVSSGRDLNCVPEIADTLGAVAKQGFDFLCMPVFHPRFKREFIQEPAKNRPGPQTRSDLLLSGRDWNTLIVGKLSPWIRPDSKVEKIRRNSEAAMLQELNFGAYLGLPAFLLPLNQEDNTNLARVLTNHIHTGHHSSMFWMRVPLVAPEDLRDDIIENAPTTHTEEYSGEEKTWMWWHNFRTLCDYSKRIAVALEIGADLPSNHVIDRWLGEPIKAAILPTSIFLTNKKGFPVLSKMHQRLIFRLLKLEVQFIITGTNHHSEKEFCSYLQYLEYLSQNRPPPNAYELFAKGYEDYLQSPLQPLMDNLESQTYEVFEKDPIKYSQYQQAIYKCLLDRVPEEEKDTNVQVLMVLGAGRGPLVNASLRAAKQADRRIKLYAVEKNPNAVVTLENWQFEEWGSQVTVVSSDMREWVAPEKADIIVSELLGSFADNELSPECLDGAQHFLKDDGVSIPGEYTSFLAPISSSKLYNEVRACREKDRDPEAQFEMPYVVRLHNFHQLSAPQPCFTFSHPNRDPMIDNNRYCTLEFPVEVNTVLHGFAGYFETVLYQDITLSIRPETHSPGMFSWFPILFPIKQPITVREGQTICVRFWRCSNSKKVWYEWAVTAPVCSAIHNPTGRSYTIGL
Sequence of Full-length (FL)-PRMT5-MEP50 enzyme complex (Q9BQA1 whole entry partner): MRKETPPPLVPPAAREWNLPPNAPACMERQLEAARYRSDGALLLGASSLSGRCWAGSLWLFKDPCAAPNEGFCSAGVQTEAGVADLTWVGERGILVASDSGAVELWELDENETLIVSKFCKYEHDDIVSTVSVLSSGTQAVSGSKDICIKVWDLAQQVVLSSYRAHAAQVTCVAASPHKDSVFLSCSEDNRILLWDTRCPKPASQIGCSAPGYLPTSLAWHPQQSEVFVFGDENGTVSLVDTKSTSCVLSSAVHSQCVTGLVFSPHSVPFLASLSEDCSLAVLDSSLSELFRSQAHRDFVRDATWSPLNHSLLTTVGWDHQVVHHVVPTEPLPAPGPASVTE
Experimental: PRMT5-MEP50 Enzyme Methylation Assay
PRMT5/MEP50 biochemical assay is a direct measurement of the methylation activity of the enzyme complex on a short peptide substrate derived from the N-terminus of H4 histone. Methylation experiment is performed with recombinant protein. The assessment of inhibitory effect (IC50) of small molecules is measured by the effectiveness of the compounds to inhibit this reaction.
To each well of a white ProxiPlus 384 well-plate, 100 nL of compound (1% DMSO in final assay volume of 10 μL) was dispensed, followed by the addition of 8 μL of 1× assay buffer (50 mM Bicine pH 8.0, 1 mM DTT, 0.004% Tween20, 0.01% BSA) containing 0.5 nM of Full-length (FL)-PRMT5-MEP50 enzyme complex (recombinant proteins from baculovirus-transfected Sf21 cells: FL-PRMT5; MW=[…] and FL-MEP50; MW=38614). Plates were sealed and placed in a 37° C. humidified chamber for 30 minutes pre-incubation with compounds. Subsequently, each reaction was initiated by the addition of 2 μL 1× assay buffer containing 75 nM biotinylated H4R3(Me1) peptide, and 15 μM S-(5′-Adenosyl)-L-Methionine Chloride (SAM). The final reaction in each well of 10 μL consists of 0.5 nM PRMT5-MEP50, 75 nM biotinylated-peptide, and 15 μM. Methylation reactions were allowed to proceed for 150 minutes in a sealed plate at 37° C. Reactions were immediately quenched by the addition of 1 μL of 10% formic acid. Plates were then frozen and shipped to SAMDI™ Tech Inc. to determine the percent conversion from […]. IC50 values were determined by 7 parameters biphasic fit model plotting the percent product conversion vs. (Log10) compound concentrations.

[2] = first IC50 of 7 parameters biphasic fit, read-out: Enzyme Methylation Assay IC50_1
[3] = second IC50 of 7 parameters biphasic fit, read-out: Enzyme Methylation Assay IC50_2

Sequence of PRMT5 (O14744 whole entry): as the sequence (O14744 whole entry) above
Sequence of PRMT5 (Q9BQA1 whole entry partner): as the sequence (Q9BQA1 whole entry partner) above

Compound	EC50 (PRMT5)	IC50 [1, 2]	IC50 [1, 3]
CC[C@H]1CN(C[C@@H](O)[C@@H]2Cc3ccccc3CN2)C(=O)c2cc(Cl)ncc21 (single isomer, unassigned) [Example 1]	≥ 10 µM	5.19 µM	≥ 100 µM
CC[C@H]1CN(C[C@@H](O)[C@@H]2Cc3ccccc3CN2)C(=O)c2cc(Cl)ncc21 (single isomer, unassigned) [Example 3]	≥ 10 µM	28.3 µM	≥ 100 µM
CC[C@H]1CN(C[C@@H](O)[C@@H]2Cc3ccccc3CN2)C(=O)c2cc(Cl)ncc21 (single isomer, unassigned) [Example 4]	≥ 10 µM	42.9 µM	≥ 100 µM
CC[C@H]1CN(C[C@@H](O)[C@@H]2Cc3ccccc3CN2)C(=O)c2cc(Cl)ncc21 (single isomer, unassigned) [Example 2]	≥ 10 µM	3.83 µM	≥ 100 µM

Next, values leading:

EC50 (PRMT5)	IC50 [1, 2]	IC50 [1, 3]	Compound
0.103 µM	0.00108 µM	1.18 µM	CC[C@H]1CN(C[C@@H](O)[C@@H]2Cc3ccccc3CN2)C(=O)c2cc(NC3CCN(C(C)=O)CC3)ncc21 (single isomer, unassigned) [Example 9]
≥ 10 µM	0.272 µM	64.5 µM	CC[C@H]1CN(C[C@@H](O)[C@@H]2Cc3ccccc3CN2)C(=O)c2cc(NC3CCN(C(C)=O)CC3)ncc21 (single isomer, unassigned) [Example 10]
0.682 µM	0.00715 µM	4.99 µM	CC[C@H]1CN(C[C@@H](O)[C@@H]2Cc3ccccc3CN2)C(=O)c2cc(NC3CCN(C(C)=O)CC3)ncc21 (single isomer, unassigned) [Example 7]
3.24 µM	0.0968 µM	29.1 µM	CC[C@H]1CN(C[C@@H](O)[C@@H]2Cc3ccccc3CN2)C(=O)c2cc(NC3CCN(C(C)=O)CC3)ncc21 (single isomer, unassigned) [Example 8]
3.89 µM	0.0569 µM	9.23 µM	CC(=O)N1CCC(Nc2cc3c(cn2)C(C)(C)CN(C[C@@H](O)[C@@H]2Cc4ccccc4CN2)C3=O)CC1 (single isomer, unassigned) [Example 11]
0.102 µM	0.00153 µM	0.631 µM	CC(=O)N1CCC(Nc2cc3c(cn2)C(C)(C)CN(C[C@@H](O)[C@@H]2Cc4ccccc4CN2)C3=O)CC1 (single isomer, unassigned) [Example 12]
